Test results from US8367873B2, “Phenyl-substituted bicyclooctane-1,3-dione derivatives” (Bayer Cropscience AG, priority 2008, dated 2013).

Key:
Format in all cases: in vivo
[1] = system: monocotylidonous and dicotylidonous weed and crop plants; assay: Herbicidal post-emergence action (other test plants); details: post-emergence method, 80 g/ha
In short: (§1)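 Greenhouse-grown weeds were treated post-emergence at the one-leaf stage, two to three weeks after sowing in sandy loam. Compounds formulated as WP were sprayed at various rates in 600 l/ha water with 0.2% wetting agent. Damage was scored visually after about three weeks versus untreated controls (0% = like control, 100% = dead).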

Echinocloa crus-galli [2] = assay: Herbicidal pre-emergence action; details: pre-emergence method, 80 g/ha, greenhouse, visual assessment vs untreated controls
In short: (§2)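 Visual percent effect relative to untreated controls (0% = like control, 100% = dead) assessed three weeks after treatment in the greenhouse. Compounds, as wettable powders in water (600 l/ha, 0.2% wetting agent), were sprayed at different amounts onto covering soil over seeds sown in sandy loam.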

Lolium multiflorum [3] = assay: Herbicidal pre-emergence action; details: pre-emergence method, 80 g/ha, greenhouse, visual assessment vs untreated controls
In short: as §2

Setaria viridis [4] = assay: Herbicidal pre-emergence action; details: pre-emergence method, 80 g/ha, greenhouse, visual assessment vs untreated controls
In short: as §2

Alopecurus myosuroides [5] = assay: Herbicidal pre-emergence action; details: pre-emergence method, 80 g/ha, greenhouse, visual assessment vs untreated controls
In short: as §2

[6] = system: monocotylidonous and dicotylidonous weed and crop plants; assay: Herbicidal pre-emergence action (other test plants); details: pre-emergence method, 80 g/ha, greenhouse, visual assessment vs untreated controls
In short: as §2

cereals = assay: Container trials with cereals in the greenhouse, use of safeners (Mefenpyr 1 day prior to herbicide application)
Method: Seeds of monocotylidonous and dicotylidonous weed and crop plants are placed in sandy loam in wood fibre pots, covered with soil and cultivated in a greenhouse under good growth conditions. Two to three weeks after sowing, the test plants are treated at the one-leaf stage. The test compounds, formulated as wettable powders (WP), are then with a water application rate of 600 l/ha (converted), with 0.2% of wetting agent added, sprayed onto the green parts of the plants in different amounts. After the test plants have been kept in the greenhouse under optimum growth conditions for about three weeks, the effect of the preparations is assessed visually in comparison to untreated controls (herbicidal effect in percent: 100% effect=the plants have died, 0% effect=like control plants).
If it is to be additionally tested as to whether safeners can improve the plant compatibility of test substances in the case of crop plants, the following options are used for applying the safeners: • Seeds of the crop plants are, before sowing, dressed with safener substance (the amount of safener stated in percent, based on the weight of the seed) • Before the application of the test substances, the crop plants are sprayed with the safener at a certain application rate per hectare (usually one day before the application of the test substances) • The safener is applied together with the test substance as a tank mix (the amount of safener stated in g/ha or as a ratio, based on the herbicide).
Container Trials with Cereals in the Greenhouse

Echinocloa crus-galli [7] = assay: Herbicidal post-emergence action; details: post-emergence method, 80 g/ha
In short: as §1

Lolium multiflorum [8] = assay: Herbicidal post-emergence action; details: post-emergence method, 80 g/ha
In short: as §1

Setaria viridis [9] = assay: Herbicidal post-emergence action; details: post-emergence method, 80 g/ha
In short: as §1

Alopecurus myosuroides [10] = assay: Herbicidal post-emergence action; details: post-emergence method, 80 g/ha
In short: as §1

[11] = 28 days after application, 50 g of a.i./ha
[12] = 28 days after application, 100 g of a.i./ha
[13] = 28 days after application, 12.5 g of a.i./ha
[14] = 28 days after application, 25 g of a.i./ha
[15] = 10 days after application, 12.5 g of a.i./ha
[16] = 10 days after application, 25 g of a.i./ha
[17] = 10 days after application, 50 g of a.i./ha

| SMILES | herbicidal effect against AVEFA (Avena fatua) [1] | herbicidal effect ECHCG (Echinocloa crus-galli [2]) | herbicidal effect LOLMU (Lolium multiflorum [3]) | herbicidal effect SETVI (Setaria viridis [4]) | herbicidal effect ALOMY (Alopecurus myosuroides [5]) | herbicidal effect AVEFA [6] | Summer barley observed (%) (cereals; [11]) | Summer barley observed (%) (cereals; [12]) | Summer wheat observed (%) (cereals; [13]) | Summer wheat observed (%) (cereals; [14]) | Summer wheat observed (%) (cereals; [11]) | Summer wheat observed (%) (cereals; [12]) | herbicidal effect against ECHCG (Echinochloa crus-galli) (Echinocloa crus-galli [7]) | herbicidal effect against LOLMU (Lolium multiflorum) (Lolium multiflorum [8]) | herbicidal effect against SETVI (Setaria viridis) (Setaria viridis [9]) | herbicidal effect against ALOMY (Alopecurus myosuroides) (Alopecurus myosuroides [10]) | also measured |
| --- | --- | --- | --- | --- | --- | --- | --- | --- | --- | --- | --- | --- | --- | --- | --- | --- | --- |
| CCOC(=O)OC1=C(c2c(CC)cc(C)cc2CC)C(=O)[C@@H]2CC3(C[C@H]12)OCCCO3 (relative stereo) [I-c-14] | 70% | 90% | 100% | 70% | 90% | 70% | 10% | 20% | 40% | 50% | 60% | 70% | 100% | 100% | 100% | 90% | – |
| CCc1cc(C)cc(C)c1C1=C(O)C2CC3(CC2C1=O)OCCCO3 (stereo not drawn) [I-a-58] | – | 100% | 100% | 100% | 70% | 70% | 10% | 15% | 10% | 15% | 20% | 60% | 100% | 100% | 100% | 100% | Summer barley observed (%) (cereals; [14]): 5% |
| C=C1COC2(CC3C(=O)C(c4c(CC)cc(C)cc4CC)=C(OC(=O)C(C)C)C3C2)OC1 (stereo not drawn) [I-b-13] | 100% | 100% | 100% | 100% | 100% | 80% | 20% | 50% | 20% | 40% | 80% | 85% | 100% | 100% | 100% | 100% | – |
| CCc1cc(C)cc(CC)c1C1=C([O-])C2CC3(CC2C1=O)OC(C)CC(C)O3.[Na+] (mixture of isomers) [I-f-19] | 100% | 100% | 100% | 100% | 100% | 60% | 20% | 50% | 20% | 90% | 97% | 99% | 100% | 100% | 100% | 100% | Summer barley observed (%) (cereals; [13]): 10%; Summer barley observed (%) (cereals; [14]): 10% |
| CCc1cc(C)cc(CC)c1C1=C(O)[C@H]2CC3(C[C@H]2C1=O)OCCCO3 (relative stereo) [I-a-11] | 90% | 100% | 100% | 70% | 90% | 50% | 8% | 10% | 10% | 50% | 60% | 70% | 100% | 100% | 100% | 90% | Summer wheat observed (%) (cereals; [15]): 30%; Summer wheat observed (%) (cereals; [16]): 50%; Summer wheat observed (%) (cereals; [17]): 70% |
| CCOC(=O)OC1=C(c2c(CC)cc(C)cc2CC)C(=O)[C@@H]2CC3(C[C@H]12)OCCO3 (relative stereo) [I-c-7] | 70% | 100% | 90% | 70% | 100% | 70% | – | – | 10% | 30% | 30% | 30% | 100% | 100% | 80% | 90% | Summer wheat observed (%) (cereals; [15]): 40%; Summer wheat observed (%) (cereals; [16]): 50%; Summer wheat observed (%) (cereals; [17]): 60% |
| CCOC(=O)OC1=C(c2c(CC)cc(C)cc2CC)C(=O)C2CC3(CC12)OC(C)CC(C)O3 (mixture of isomers) [I-c-10] | 100% | 100% | 100% | 90% | 100% | 80% | 50% | 95% | 15% | 50% | 95% | – | – | 100% | 90% | 90% | – |
| CCc1cc(C)cc(CC)c1C1=C(OC(=O)COC)C2CC3(COC(C)(C)O3)CC2C1=O (stereo not drawn) [I-b-4] | 90% | 70% | 100% | 60% | 90% | 50% | – | – | – | – | – | – | 100% | 100% | 60% | 100% | – |
